Source: patent US20250163104A1, “MACROCYCLIC IMMUNOMODULATORS” (priority 2021, published 2025)
Where a SMILES comes first, the peptide text is derived from it. Bridges are numbered along the chain shown (N, C = ends). [ ]: non-standard residue; d: D form. ξ: configuration not given here. Bip(3'-COOH) = N[C@@H](Cc1ccc(-c2cccc(C(=O)O)c2)cc1)C(=O)O; Bip = N[C@@H](Cc1ccc(-c2ccccc2)cc1)C(=O)O; Phe(3-Me) = Cc1cccc(C[C@H](N)C(=O)O)c1; 3Pal = N[C@@H](Cc1cccnc1)C(=O)O; 4Pal = N[C@@H](Cc1ccncc1)C(=O)O; Cha = N[C@@H](CC1CCCCC1)C(=O)O; Ile(3ξ) = CCC(C)[C@H](N)C(=O)O; Orn = NCCC[C@H](N)C(=O)O; Dab = NCC[C@H](N)C(=O)O; Dap = NC[C@H](N)C(=O)O

What follows are compounds tested against T1, human PD-1 / PD-L1-Ig binding on Jurkat cell line over-expressing human PD-1 (Jurkat-PD-1) (Homo sapiens, UniProt Q15116) (assay: Jurkat-PD-1 Cell Binding High-Content Screening Assay (CBA)). Settings: Jurkat-PD-1 cells, PE-labeled PD-L1-Ig 20 nM final; read-out: Jurkat HPD1_PDL1 IC50.
T1 construct: expressed in transfected cells; host or cells: Jurkat
T1 sequence (Q15116 25-288): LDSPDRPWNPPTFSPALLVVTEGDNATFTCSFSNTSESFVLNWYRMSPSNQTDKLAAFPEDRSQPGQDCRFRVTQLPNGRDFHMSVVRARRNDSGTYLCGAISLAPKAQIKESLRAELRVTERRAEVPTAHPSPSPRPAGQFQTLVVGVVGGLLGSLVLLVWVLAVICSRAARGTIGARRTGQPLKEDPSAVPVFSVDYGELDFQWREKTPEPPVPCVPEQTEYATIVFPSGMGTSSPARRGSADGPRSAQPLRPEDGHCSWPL
Format: cell-based
In short: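 Binding of fluorescent PD-L1-Ig (phycoerythrin linked via the Ig tag, 20 nM final) to PD-1-overexpressing Jurkat cells was imaged after a 2 h, 37° C compound pretreatment and 1 hour ligand incubation.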
`CCC(C)[C@@H]1NC(=O)[C@H](Cc2ccc(-c3ccccc3)cc2)NC(=O)[C@H](C(C)C)NC(=O)[C@H](Cc2c[nH]c3ccccc23)NC(=O)[C@H](CC(=O)O)NC(=O)[C@H](Cc2ccc(-c3cccc(C(=O)O)c3)cc2)NC(=O)[C@H](Cc2ccccc2)NC(=O)CSC[C@@H](C(=O)N[C@@H](C)C(N)=O)NC(=O)[C@H]([C@@H](C)O)NC(=O)[C@H](C(C)C)NC(=O)[C@H](CC2CCCCC2)NC(=O)[C@H](CCN)NC(=O)[C@@H](CC(C)C)NC(=O)[C@H](CCCN)NC1=O` (stereo partly drawn) [Compound 2218] ({CH2CO}-F[Bip(3'-COOH)]DWV[Bip][Ile(3ξ)][Orn][dL][Dab][Cha]VTCA-NH2; thioether N-14) was tested, and the IC50 was 50.1 nM. For `CCC(C)[C@@H]1NC(=O)[C@H](Cc2ccc(-c3ccccc3)cc2)NC(=O)[C@H](C(C)C)NC(=O)[C@H](Cc2c[nH]c3ccccc23)NC(=O)[C@H](CC(=O)O)NC(=O)[C@H](Cc2ccc(-c3cccc(C(=O)O)c3)cc2)NC(=O)[C@H](CN)NC(=O)CSC[C@@H](C(=O)N[C@@H](C)C(N)=O)NC(=O)[C@H]([C@@H](C)O)NC(=O)[C@H](C(C)C)NC(=O)[C@H](CC2CCCCC2)NC(=O)[C@H](CCN)NC(=O)[C@@H](CC(C)C)NC(=O)[C@H](CCCN)NC1=O` (stereo partly shown) [Compound 2219], the IC50 was 13.4 nM. `CCC(C)[C@@H]1NC(=O)[C@H](Cc2ccc(-c3ccccc3)cc2)NC(=O)[C@H](C(C)C)NC(=O)[C@H](Cc2c[nH]c3ccccc23)NC(=O)[C@H](CC(=O)O)NC(=O)[C@H](Cc2ccc(-c3cccc(C(=O)O)c3)cc2)NC(=O)[C@H](Cc2ccc(OCC(=O)O)cc2)NC(=O)CSC[C@@H](C(=O)N[C@@H](C)C(N)=O)NC(=O)[C@H]([C@@H](C)O)NC(=O)[C@H](C(C)C)NC(=O)[C@H](CC2CCCCC2)NC(=O)[C@H](CCN)NC(=O)[C@@H](CC(C)C)NC(=O)[C@H](CCCN)NC1=O` (stereo partly shown) [Compound 2220] gave an IC50 of 34.6 nM. With `CCC(C)[C@@H]1NC(=O)[C@H](Cc2ccc(-c3ccccc3)cc2)NC(=O)[C@H](C(C)C)NC(=O)[C@H](Cc2c[nH]c3ccccc23)NC(=O)[C@H](CC(=O)O)NC(=O)[C@H](Cc2ccc(-c3cccc(C(=O)O)c3)cc2)NC(=O)[C@H](Cc2ccncc2)NC(=O)CSC[C@@H](C(=O)N[C@@H](C)C(N)=O)NC(=O)[C@H]([C@@H](C)O)NC(=O)[C@H](C(C)C)NC(=O)[C@H](CC2CCCCC2)NC(=O)[C@H](CCN)NC(=O)[C@@H](CC(C)C)NC(=O)[C@H](CCCN)NC1=O` (stereo partly shown) [Compound 2221] the IC50 was 32.1 nM. `CCC(C)[C@@H]1NC(=O)[C@H](Cc2ccc(-c3ccccc3)cc2)NC(=O)[C@H](C(C)C)NC(=O)[C@H](Cc2cccc(C)c2)NC(=O)[C@H](CC(=O)O)NC(=O)[C@H](Cc2ccc(-c3cccc(C(=O)O)c3)cc2)NC(=O)[C@H](CC(N)=O)NC(=O)CSC[C@@H](C(=O)N[C@@H](C)C(N)=O)NC(=O)[C@H]([C@@H](C)O)NC(=O)[C@H](C(C)C)NC(=O)[C@H](CC2CCCCC2)NC(=O)[C@H](CCN)NC(=O)[C@@H](CC(C)C)NC(=O)[C@H](CCCN)NC1=O` (stereo partly shown) [Compound 2222] was tested, and the IC50 was 25 nM. `CCC(C)[C@@H]1NC(=O)[C@H](Cc2ccc(-c3ccccc3)cc2)NC(=O)[C@H](C(C)C)NC(=O)[C@H](Cc2cccc(C)c2)NC(=O)[C@H](CC(=O)O)NC(=O)[C@H](Cc2ccc(-c3cccc(C(=O)O)c3)cc2)NC(=O)[C@H](Cc2ccccc2)NC(=O)CSC[C@@H](C(=O)N[C@@H](C)C(N)=O)NC(=O)[C@H]([C@@H](C)O)NC(=O)[C@H](C(C)C)NC(=O)[C@H](CC2CCCCC2)NC(=O)[C@H](CCN)NC(=O)[C@@H](CC(C)C)NC(=O)[C@H](CCCN)NC1=O` (stereo partly shown) [Compound 2223] was tested, and the IC50 was 74.8 nM. Compound `CCC(C)[C@@H]1NC(=O)[C@H](Cc2ccc(-c3ccccc3)cc2)NC(=O)[C@H](C(C)C)NC(=O)[C@H](Cc2cccc(C)c2)NC(=O)[C@H](CC(=O)O)NC(=O)[C@H](Cc2ccc(-c3cccc(C(=O)O)c3)cc2)NC(=O)[C@H](CN)NC(=O)CSC[C@@H](C(=O)N[C@@H](C)C(N)=O)NC(=O)[C@H]([C@@H](C)O)NC(=O)[C@H](C(C)C)NC(=O)[C@H](CC2CCCCC2)NC(=O)[C@H](CCN)NC(=O)[C@@H](CC(C)C)NC(=O)[C@H](CCCN)NC1=O` (stereo partly shown) [Compound 2224] has an IC50 of 14.1 nM. `CCC(C)[C@@H]1NC(=O)[C@H](Cc2ccc(-c3ccccc3)cc2)NC(=O)[C@H](C(C)C)NC(=O)[C@H](Cc2cccc(C)c2)NC(=O)[C@H](CC(=O)O)NC(=O)[C@H](Cc2ccc(-c3cccc(C(=O)O)c3)cc2)NC(=O)[C@H](Cc2ccc(OCC(=O)O)cc2)NC(=O)CSC[C@@H](C(=O)N[C@@H](C)C(N)=O)NC(=O)[C@H]([C@@H](C)O)NC(=O)[C@H](C(C)C)NC(=O)[C@H](CC2CCCCC2)NC(=O)[C@H](CCN)NC(=O)[C@@H](CC(C)C)NC(=O)[C@H](CCCN)NC1=O` (stereo partly shown) [Compound 2225] showed an IC50 of 182 nM. For `CCC(C)[C@@H]1NC(=O)[C@H](Cc2ccc(-c3ccccc3)cc2)NC(=O)[C@H](C(C)C)NC(=O)[C@H](Cc2cccc(C)c2)NC(=O)[C@H](CC(=O)O)NC(=O)[C@H](Cc2ccc(-c3cccc(C(=O)O)c3)cc2)NC(=O)[C@H](Cc2ccncc2)NC(=O)CSC[C@@H](C(=O)N[C@@H](C)C(N)=O)NC(=O)[C@H]([C@@H](C)O)NC(=O)[C@H](C(C)C)NC(=O)[C@H](CC2CCCCC2)NC(=O)[C@H](CCN)NC(=O)[C@@H](CC(C)C)NC(=O)[C@H](CCCN)NC1=O` (stereo partly shown) [Compound 2226], the IC50 was 25.4 nM. Work on `CCC(C)[C@@H]1NC(=O)[C@H](Cc2ccc(-c3ccccc3)cc2)NC(=O)[C@H](C(C)C)NC(=O)[C@H](Cc2c[nH]c3ccccc23)NC(=O)[C@H](CC(=O)O)NC(=O)[C@H](Cc2cccnc2)NC(=O)[C@H](CC(N)=O)NC(=O)CSC[C@@H](C(=O)N[C@@H](C)C(N)=O)NC(=O)[C@H]([C@@H](C)O)NC(=O)[C@H](C(C)C)NC(=O)[C@H](CC2CCCCC2)NC(=O)[C@H](CCN)NC(=O)[C@@H](CC(C)C)NC(=O)[C@H](CCCN)NC1=O` (stereo partly drawn) [Compound 2228] ({CH2CO}-N[3Pal]DWV[Bip][Ile(3ξ)][Orn][dL][Dab][Cha]VTCA-NH2; thioether N-14) yielded an IC50 of 16.1 nM. Compound `CCC(C)[C@@H]1NC(=O)[C@H](Cc2ccc(-c3ccccc3)cc2)NC(=O)[C@H](C(C)C)NC(=O)[C@H](Cc2c[nH]c3ccccc23)NC(=O)[C@H](CC(=O)O)NC(=O)[C@H](Cc2cccnc2)NC(=O)[C@H](Cc2ccccc2)NC(=O)CSC[C@@H](C(=O)N[C@@H](C)C(N)=O)NC(=O)[C@H]([C@@H](C)O)NC(=O)[C@H](C(C)C)NC(=O)[C@H](CC2CCCCC2)NC(=O)[C@H](CCN)NC(=O)[C@@H](CC(C)C)NC(=O)[C@H](CCCN)NC1=O` (stereo partly drawn) [Compound 2229] ({CH2CO}-F[3Pal]DWV[Bip][Ile(3ξ)][Orn][dL][Dab][Cha]VTCA-NH2; thioether N-14) has an IC50 of 21.5 nM. Compound `CCC(C)[C@@H]1NC(=O)[C@H](Cc2ccc(-c3ccccc3)cc2)NC(=O)[C@H](C(C)C)NC(=O)[C@H](Cc2c[nH]c3ccccc23)NC(=O)[C@H](CC(=O)O)NC(=O)[C@H](Cc2cccnc2)NC(=O)[C@H](CN)NC(=O)CSC[C@@H](C(=O)N[C@@H](C)C(N)=O)NC(=O)[C@H]([C@@H](C)O)NC(=O)[C@H](C(C)C)NC(=O)[C@H](CC2CCCCC2)NC(=O)[C@H](CCN)NC(=O)[C@@H](CC(C)C)NC(=O)[C@H](CCCN)NC1=O` (stereo partly drawn) [Compound 2230] ({CH2CO}-[Dap][3Pal]DWV[Bip][Ile(3ξ)][Orn][dL][Dab][Cha]VTCA-NH2; thioether N-14) has an IC50 of 16.1 nM. With `CCC(C)[C@@H]1NC(=O)[C@H](Cc2ccc(-c3ccccc3)cc2)NC(=O)[C@H](C(C)C)NC(=O)[C@H](Cc2c[nH]c3ccccc23)NC(=O)[C@H](CC(=O)O)NC(=O)[C@H](Cc2cccnc2)NC(=O)[C@H](Cc2ccncc2)NC(=O)CSC[C@@H](C(=O)N[C@@H](C)C(N)=O)NC(=O)[C@H]([C@@H](C)O)NC(=O)[C@H](C(C)C)NC(=O)[C@H](CC2CCCCC2)NC(=O)[C@H](CCN)NC(=O)[C@@H](CC(C)C)NC(=O)[C@H](CCCN)NC1=O` (stereo partly drawn) [Compound 2232] ({CH2CO}-[4Pal][3Pal]DWV[Bip][Ile(3ξ)][Orn][dL][Dab][Cha]VTCA-NH2; thioether N-14) the IC50 was 13.6 nM. Compound `CCC(C)[C@@H]1NC(=O)[C@H](Cc2ccc(-c3ccccc3)cc2)NC(=O)[C@H](C(C)C)NC(=O)[C@H](Cc2cccc(C)c2)NC(=O)[C@H](CC(=O)O)NC(=O)[C@H](Cc2cccnc2)NC(=O)[C@H](CC(N)=O)NC(=O)CSC[C@@H](C(=O)N[C@@H](C)C(N)=O)NC(=O)[C@H]([C@@H](C)O)NC(=O)[C@H](C(C)C)NC(=O)[C@H](CC2CCCCC2)NC(=O)[C@H](CCN)NC(=O)[C@@H](CC(C)C)NC(=O)[C@H](CCCN)NC1=O` (stereo partly drawn) [Compound 2233] ({CH2CO}-N[3Pal]D[Phe(3-Me)]V[Bip][Ile(3ξ)][Orn][dL][Dab][Cha]VTCA-NH2; thioether N-14) has an IC50 of 12 nM. `CCC(C)[C@@H]1NC(=O)[C@H](Cc2ccc(-c3ccccc3)cc2)NC(=O)[C@H](C(C)C)NC(=O)[C@H](Cc2cccc(C)c2)NC(=O)[C@H](CC(=O)O)NC(=O)[C@H](Cc2cccnc2)NC(=O)[C@H](Cc2ccccc2)NC(=O)CSC[C@@H](C(=O)N[C@@H](C)C(N)=O)NC(=O)[C@H]([C@@H](C)O)NC(=O)[C@H](C(C)C)NC(=O)[C@H](CC2CCCCC2)NC(=O)[C@H](CCN)NC(=O)[C@@H](CC(C)C)NC(=O)[C@H](CCCN)NC1=O` (stereo partly drawn) [Compound 2234] ({CH2CO}-F[3Pal]D[Phe(3-Me)]V[Bip][Ile(3ξ)][Orn][dL][Dab][Cha]VTCA-NH2; thioether N-14) was tested, and the IC50 was 70.8 nM. `CCC(C)[C@@H]1NC(=O)[C@H](Cc2ccc(-c3ccccc3)cc2)NC(=O)[C@H](C(C)C)NC(=O)[C@H](Cc2cccc(C)c2)NC(=O)[C@H](CC(=O)O)NC(=O)[C@H](Cc2cccnc2)NC(=O)[C@H](CN)NC(=O)CSC[C@@H](C(=O)N[C@@H](C)C(N)=O)NC(=O)[C@H]([C@@H](C)O)NC(=O)[C@H](C(C)C)NC(=O)[C@H](CC2CCCCC2)NC(=O)[C@H](CCN)NC(=O)[C@@H](CC(C)C)NC(=O)[C@H](CCCN)NC1=O` (stereo partly shown) [Compound 2235] gave an IC50 of 9.1 nM.
